Our source for the IC50 values is patent US12187728B2 (Raze Therapeutics, Inc., priority 2015, dated 2025).

Structures are written as SMILES.

In general, IC50 refers to the concentration at which inhibition is half-maximal. The low end stands for greater potency in that assay, the high end for weaker potency in that assay.

In the assay the target is T1, Human MTHFD2 (Homo sapiens, UniProt P13995).
T1 construct: residues 36-350 in Uniport ID P13995; His6 (N); made in house; host or cells: E. coli
T1 sequence (P13995 36-350): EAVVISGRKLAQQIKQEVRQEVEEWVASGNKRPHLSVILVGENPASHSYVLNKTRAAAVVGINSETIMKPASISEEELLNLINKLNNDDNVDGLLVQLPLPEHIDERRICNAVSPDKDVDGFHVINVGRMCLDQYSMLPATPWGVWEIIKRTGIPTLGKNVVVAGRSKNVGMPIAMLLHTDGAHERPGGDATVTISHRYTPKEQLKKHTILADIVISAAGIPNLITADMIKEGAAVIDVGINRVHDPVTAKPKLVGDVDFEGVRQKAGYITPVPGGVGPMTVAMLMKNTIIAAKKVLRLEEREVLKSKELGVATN
The assay is described as follows: MTHFD2 Activity Assay (dehydrogenase activity, diaphorase/resazurin coupled fluorescence). Format: biochemical. The following applies: inhibitory activity (IC50 and/or binding constant); 0.2 nM MTHFD2, 11 concentrations. Put shortly:
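Steps: compound + 0.2 nM enzyme, 15 min, pH 8.0 Hepes buffer; add 70 μM CH2-THF, 1 mM NAD+, 100 μM resazurin, diaphorase; 30 min; quench with EDTA; read fluorescence. Data normalized to DMSO (100%) and no-enzyme (0%) wells.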
Turning to `Cn1c(N[C@H]2CC[C@@H](O)C2)nc2c1c(=O)n(Cc1ccc(C(F)(F)F)cc1)c(=O)n2C` (single isomer, unassigned) [Example 156, 8-((1S,3R)-3-hydroxycyclopentylamino)-3,7-dimethyl-1-(4-(trifluoromethyl)benzyl)-1H-purine-2,6(3H,7H)-dione or 8-((1R,3S)-3-hydroxycyclopentylamino)-3,7-dimethyl-1-(4-(trifluoromethyl)benzyl)-1H-purine-2,6(3H,7H)-dione], the IC50 was in the range of 1 to 5 µM.

For `Cn1c(N[C@@H]2CC[C@@H](O)C2)nc2c(=O)n(Cc3ccc(Cl)c(Cl)c3)c(=O)n(C)c21` [Example 262, 1-(3,4-dichlorobenzyl)-8-((1R,3R)-3-hydroxycyclopentylamino)-3,9-dimethyl-1H-purine-2,6(3H,9H)-dione], the IC50 is over 10 µM. The value for `CN(C)C1CCCC(Nc2nc3c(c(=O)n(Cc4ccc(Cl)c(Cl)c4)c(=O)n3C)n2C)C1` (racemic) [Example 84, (±)-1-(3,4-dichlorobenzyl)-8-(((cis)-3-(dimethylamino)cyclohexyl)amino)-3,7-dimethyl-3,7-dihydro-1H-purine-2,6-dione or (±)-1-(3,4-dichlorobenzyl)-8-(((trans)-3-(dimethylamino)cyclohexyl)amino)-3,7-dimethyl-3,7-dihydro-1H-purine-2,6-dione] was 1 to 5 µM; that for `Cn1c(Nc2ccnc([C@@H]3C[C@H]3CO)c2)nc2c1c(=O)n(Cc1ccc(Cl)c(Cl)c1)c(=O)n2C` (single isomer, unassigned) [Example 337, 1-(3,4-dichlorobenzyl)-8-((2-((1R,2R)-2-(hydroxymethyl)cyclopropyl)pyridin-4-yl)amino)-3,7-dimethyl-1H-purine-2,6(3H,7H)-dione or 1-(3,4-dichlorobenzyl)-8-((2-((1S,2S)-2-(hydroxymethyl)cyclopropyl)pyridin-4-yl)amino)-3,7-dimethyl-1H-purine-2,6(3H,7H)-dione] was 1 to 5 µM. `Cn1c(Nc2ccncc2)nc2c1c(=O)n(Cc1cc3c(C#N)cccc3[nH]1)c(=O)n2C` [Example 350, 2-((3,7-dimethyl-2,6-dioxo-8-(pyridin-4-ylamino)-2,3,6,7-tetrahydro-1H-purin-1-yl)methyl)-1H-indole-4-carbonitrile] displayed an IC50 of 5 to 10 µM. `Cc1ccc2[nH]c(Cn3c(=O)c4c(ncn4C)n(C)c3=O)cc2c1` [Example 236, 3,7-dimethyl-1-((5-methyl-1H-indol-2-yl)methyl)-1H-purine-2,6(3H,7H)-dione] had an IC50 of 1 to 5 µM. For `Cn1c(Nc2ncco2)nc2c1c(=O)n(Cc1ccc(Cl)c(Cl)c1)c(=O)n2C` [Example 123, 1-(3,4-dichlorobenzyl)-3,7-dimethyl-8-(oxazol-2-ylamino)-1H-purine-2,6(3H,7H)-dione], the IC50 fell in the range of 5 to 10 µM. The compound `Cn1c(C(C(N)=O)c2ccncc2)nc2c1c(=O)n(Cc1cc3c(Cl)cccc3[nH]1)c(=O)n2C` (centres unmarked) [Example 480, 2-(1-((4-chloro-1H-indol-2-yl)methyl)-3,7-dimethyl-2,6-dioxo-2,3,6,7-tetrahydro-1H-purin-8-yl)-2-(pyridin-4-yl)acetamide] showed an IC50 of 0.01 to 1 µM.

The compound `Cn1c(NC2CNC(=O)C2)nc2c1c(=O)n(Cc1ccc(Cl)c(Cl)c1)c(=O)n2C` (racemic) [Example 88, (±)-1-[(3,4-dichlorophenyl)methyl]-3,7-dimethyl-8-[(5-oxopyrrolidin-3-yl)amino]-2,3,6,7-tetrahydro-1H-purine-2,6-dione] came in with an IC50 of 0.01 to 1 µM. Compound `Cn1c(=O)n(Cc2ccc(Cl)c(Cl)c2)c(=O)c2c1nc(NC1CCCC(C(=O)O)C1)n2CCC(N)=O` (centres unmarked) [Example 318, 3-(7-(3-amino-3-oxopropyl)-1-(3,4-dichlorobenzyl)-3-methyl-2,6-dioxo-2,3,6,7-tetrahydro-1H-purin-8-ylamino)cyclohexanecarboxylic acid] displayed an IC50 of 0.01 to 1 µM. As to `Cn1c(C(N)c2ccccn2)nc2c1c(=O)n(Cc1cc3c(Cl)cccc3[nH]1)c(=O)n2C` (centres unmarked) [Example 473, 8-(amino(pyridin-2-yl)methyl)-1-((4-chloro-1H-indol-2-yl)methyl)-3,7-dimethyl-1H-purine-2,6(3H,7H)-dione], the IC50 lay in the range of 0.01 to 1 µM. For `Cn1c(Nc2cccc([C@@H]3C[C@H]3C(=O)O)n2)nc2c1c(=O)n(Cc1cc3c(Cl)cccc3[nH]1)c(=O)n2C` (single isomer, unassigned) [Example 398, (1R,2R)-2-(6-((1-((4-chloro-1H-indol-2-yl)methyl)-3,7-dimethyl-2,6-dioxo-2,3,6,7-tetrahydro-1H-purin-8-yl)amino)pyridin-2-yl)cyclopropanecarboxylic acid or (1S,2S)-2-(6-((1-((4-chloro-1H-indol-2-yl)methyl)-3,7-dimethyl-2,6-dioxo-2,3,6,7-tetrahydro-1H-purin-8-yl)amino)pyridin-2-yl)cyclopropanecarboxylic acid], the IC50 was in the range of 0.01 to 1 µM.

The compound `Cn1c(Nc2cccc(CCC(=O)O)n2)nc2c1c(=O)n(Cc1ccc(Cl)c(Cl)c1)c(=O)n2C` [Example 282, 3-(6-(1-(3,4-dichlorobenzyl)-3,7-dimethyl-2,6-dioxo-2,3,6,7-tetrahydro-1H-purin-8-ylamino)pyridin-2-yl)propanoic acid] gave an IC50 of 0.01 to 1 µM. The value for `Cn1c(Nc2cccnn2)nc2c1c(=O)n(Cc1cc3cc(Cl)ccc3[nH]1)c(=O)n2C` [Example 200, 1-((5-chloro-1H-indol-2-yl)methyl)-3,7-dimethyl-8-(pyridazin-3-ylamino)-1H-purine-2,6(3H,7H)-dione] was 1 to 5 µM. `Cn1c(Nc2ccnc(CNC(=O)CN)n2)nc2c1c(=O)n(Cc1cc3c(Cl)cccc3[nH]1)c(=O)n2C` [Example 440, 2-amino-N-((4-(1((4-chloro-1H-indol-2-yl)methyl)-3,7-dimethyl-2,6-dioxo-2,3,6,7-tetrahydro-1H-purin-8-ylamino)pyrimidin-2-yl)methyl)acetamide] showed an IC50 of 0.01 to 1 µM. As to `Cn1c(Nc2cccc(CC(=O)O)c2)nc2c1c(=O)n(Cc1cc3c(Cl)cccc3[nH]1)c(=O)n2C` [Example 339, 2-(3-((1-((4-chloro-1H-indol-2-yl)methyl)-3,7-dimethyl-2,6-dioxo-2,3,6,7-tetrahydro-1H-purin-8-yl)amino)phenyl)acetic acid], the IC50 is 0.01 to 1 µM. Compound `Cn1c(NC[C@@H](O)CO)nc2c1c(=O)n(Cc1ccc(Cl)cc1)c(=O)n2C` [Example 15, 1-[(4-chlorophenyl)methyl]-8-{[(2R)-2,3-dihydroxypropyl]amino}-3,7-dimethyl-2,3,6,7-tetrahydro-1H-purine-2,6-dione] returned an IC50 of 5 to 10 µM. In the case of `Cn1c(C(N)C2CCOCC2)nc2c1c(=O)n(Cc1[nH]c3cccc(Cl)c3c1Cl)c(=O)n2C` (centres unmarked) [Example 455, 8-[amino(tetrahydropyran-4-yl)methyl]-1-[(3,4-dichloro-1H-indol-2-yl)methyl]-3,7-dimethyl-purine-2,6-dione] it was 0.01 to 1 µM; in that of `Cn1c(Nc2ccncn2)nc2c1c(=O)n(Cc1cc3ccccc3[nH]1)c(=O)n2C` [Example 216, 1-((1H-indol-2-yl)methyl)-3,7-dimethyl-8-(pyrimidin-4-ylamino)-1H-purine-2,6(3H,7H)-dione], 0.01 to 1 µM. In the case of `Cn1c([C@H](N)Cc2ccccn2)nc2c1c(=O)n(Cc1cc3c(Cl)cccc3[nH]1)c(=O)n2C` [Example 472, (R)-8-(1-amino-2-(pyridin-2-yl)ethyl)-1-((4-chloro-1H-indol-2-yl)methyl)-3,7-dimethyl-1H-purine-2,6(3H,7H)-dione] it was 0.01 to 1 µM; in that of `Cn1c(Nc2ccnc([C@H]3C[C@@H]3C(N)=O)c2)nc2c1c(=O)n(Cc1ccc(Cl)c(Cl)c1)c(=O)n2C` (racemic) [Example 296, (±)-trans-2-(4-((1-(3,4-Dichlorobenzyl)-3,7-dimethyl-2,6-dioxo-2,3,6,7-tetrahydro-1H-purin-8-yl)amino)pyridin-2-yl)cyclopropanecarboxamide], 0.01 to 1 µM; in that of `Cn1c(NCCCO)nc2[nH]c(=O)n(Cc3ccc(Cl)c(Cl)c3)c(=O)c21` [Example 97, 1-[(3,4-dichlorophenyl)methyl]-8-[(3-hydroxypropyl)amino]-7-methyl-2,3,6,7-tetrahydro-1H-purine-2,6-dione], 1 to 5 µM. In the case of `Cn1c(Nc2ccc(C(N)=O)cc2)nc2c1c(=O)n(Cc1ccc(Cl)c(Cl)c1)c(=O)n2C` [Example 313, 4-[[1-[(3,4-dichlorophenyl)methyl]-3,7-dimethyl-2,6-dioxo-purin-8-yl]amino]benzamide] it was 0.01 to 1 µM; in that of `Cn1c(-n2c(N)nc3ccccc32)nc2c1c(=O)n(Cc1cc3c(Cl)cccc3[nH]1)c(=O)n2C` [Example 353, 8-(2-amino-1H-benzo[d]imidazol-1-yl)-1-((4-chloro-1H-indol-2-yl)methyl)-3,7-dimethyl-1H-purine-2,6(3H,7H)-dione], 1 to 5 µM; in that of `Cn1c(NC2(C(=O)O)CCCC2)nc2c1c(=O)n(Cc1ccc(Cl)c(Cl)c1)c(=O)n2C` [Example 148, 1-(1-(3,4-dichlorobenzyl)-3,7-dimethyl-2,6-dioxo-2,3,6,7-tetrahydro-1H-purin-8-ylamino)cyclopentanecarboxylic acid], 0.01 to 1 µM. The compound `COc1nc2c(c(=O)n(Cc3cc4cccc(Cl)c4n3C)c(=O)n2C)n1C` [Example 433, 1-[(7-chloro-1-methyl-indol-2-yl)methyl]-8-methoxy-3,7-dimethyl-purine-2,6-dione] returned an IC50 of 0.01 to 1 µM.
